{"source": "patent US20120219613A1", "about": "(priority 2009, published 2012)", "key": {"[1]": {"test_system": "Ebola", "assay": "microbe, parasite or virus in culture", "type": "cell-based", "conditions": "Zaire ebolavirus, read-out: Activity"}, "[2]": {"test_system": "Marburg", "assay": "organism not typed", "type": "cell-based, Musoke/Ravn", "conditions": "read-out: Activity"}, "[3]": {"test_system": "Influenza A", "assay": "microbe, parasite or virus in culture", "type": "cell-based, WSN H1N1", "conditions": "read-out: Activity"}, "[4]": {"test_system": "Junín", "assay": "organism not typed", "type": "cell-based", "conditions": "read-out: Activity"}, "[5]": {"test_system": "Rift Valley Fever", "assay": "organism not typed", "type": "cell-based", "conditions": "read-out: Activity"}, "[6]": {"test_system": "LaCrosse", "assay": "organism not typed", "type": "cell-based", "conditions": "read-out: Activity"}, "[7]": {"test_system": "Nipah", "assay": "organism not typed", "type": "cell-based, Malaysia"}, "[8]": {"test_system": "Omsk", "assay": "organism not typed", "type": "cell-based, Omsk Hemorrhagic Fever, Guriev", "conditions": "read-out: Activity"}, "[9]": {"test_system": "RSSE", "assay": "organism not typed", "type": "cell-based, Russian Spring Summer Encephalitis, Sofiin", "conditions": "read-out: Activity"}, "[10]": {"test_system": "PIV-5", "assay": "organism not typed", "type": "cell-based", "conditions": "read-out: Activity"}, "[11]": {"test_system": "HPIV-3", "assay": "microbe, parasite or virus in culture", "type": "cell-based", "conditions": "Human respirovirus 3, read-out: Activity"}, "[12]": {"test_system": "NDV", "type": "cell-based, Newcastle Disease, rNDV/F3aa-GFP"}, "[13]": {"test_system": "HIV-1", "assay": "microbe, parasite or virus in culture", "type": "cell-based", "conditions": "Human immunodeficiency virus 1, read-out: Activity"}, "[14]": {"test_system": "Murine Leukemia", "assay": "cells", "type": "cell-based, F57", "conditions": "Mus musculus, read-out: Activity"}, "[15]": {"test_system": "Yellow Fever", "assay": "organism not typed", "type": "cell-based, Asibi", "conditions": "read-out: Activity"}, "[16]": {"test_system": "Hepatitis C Virus", "assay": "microbe, parasite or virus in culture", "type": "cell-based", "conditions": "read-out: Activity"}, "[17]": {"test_system": "West Nile Virus", "assay": "microbe, parasite or virus in culture", "type": "cell-based", "conditions": "read-out: Activity"}, "[18]": {"test_system": "Vesicular", "assay": "microbe, parasite or virus in culture", "type": "cell-based, Vesicular Stomatitis, Indiana"}, "[19]": {"test_system": "Cowpox", "assay": "organism not typed", "type": "cell-based, Brighton", "conditions": "read-out: Activity"}, "[20]": {"test_system": "Vaccinia", "assay": "microbe, parasite or virus in culture", "type": "cell-based, VTF1.1", "conditions": "Orthopoxvirus vaccinia, read-out: Activity"}, "[21]": {"test_system": "Adenovirus", "assay": "microbe, parasite or virus in culture", "type": "cell-based", "conditions": "unidentified adenovirus, read-out: Activity"}, "[22]": {"test_system": "Coxsackie B", "assay": "organism not typed", "type": "cell-based", "conditions": "read-out: Activity"}, "[23]": {"test_system": "Reovirus", "assay": "microbe, parasite or virus in culture", "type": "cell-based", "conditions": "Reovirus sp., read-out: Activity"}, "[24]": {"test_system": "NiV-pVSV", "assay": "microbe, parasite or virus in culture", "type": "cell-based, Nipah virus envelope pseudotyped onto VSV"}, "[25]": {"test_system": "VSV-G pseudotyped VSV", "type": "cell-based, Vesicular Stomatitis virus"}, "[26]": {"test_system": "VSV transcription", "type": "biochemical, VSV-Indiana"}, "[27]": {"test_system": "live VSV and NiV-pVSV", "type": "cell-based"}, "[28]": {"test_system": "Vero cells infected with pVSV", "type": "cell-based"}, "[29]": {"test_system": "pVSV", "type": "cell-based"}, "[30]": {"test_system": "Vero cells", "type": "cell-based"}, "[31]": {"test_system": "NiV-pVSV", "type": "cell-based"}, "[32]": {"test_system": "pVSV particles"}, "[33]": {"test_system": "RVFV MP-12", "type": "cell-based, Rift Valley fever virus"}, "[34]": {"test_system": "NiV-pseudotyped pVSV binding to ephrinB2", "type": "cell-based"}, "[35]": {"test_system": "NiV VLPs", "type": "cell-based, Nipah virus"}, "[36]": {"test_system": "NiV envelope mediated cell-cell fusion", "type": "cell-based"}, "[37]": {"test_system": "HIV-1 (JRCSF)", "type": "cell-based"}, "[38]": {"test_system": "Vero cells"}, "[39]": {"test_system": "Vero cells", "remark": "listed apart in the source"}, "[40]": {"conditions": "mouse, in vivo"}, "[41]": {"conditions": "male, Sprague-Dawley, rat, in vivo"}, "[42]": {"assay": "in vivo", "conditions": "male, Sprague-Dawley, rat, ip"}}}
{"smiles": "C=CCN1C(=O)/C(=C/c2ccc(-c3ccccc3)o2)SC1=S", "note": "[LJ-001, (Z)-3-Allyl-5-(5-phenyl-2-furyl)methylene-4-oxothiazolidine-2-thione]", "values": [{"measurement": "IC50", "setting": "[1]", "result": "500 to 1000", "unit": "nM"}, {"measurement": "IC50", "setting": "[2]", "result": "500 to 1000", "unit": "nM"}, {"measurement": "IC50", "setting": "[3]", "result": "< 500", "unit": "nM"}, {"measurement": "IC50", "setting": "[4]", "result": "500 to 1000", "unit": "nM"}, {"measurement": "IC50", "setting": "[5]", "result": "< 500", "unit": "nM"}, {"measurement": "IC50", "setting": "[6]", "result": "< 500", "unit": "nM"}, {"measurement": "infection and infectious spread of live NiV", "setting": "[7]", "result": "inhibit infection and infectious spread"}, {"measurement": "IC50", "setting": "[7]; read-out: Activity", "result": "500 to 1000", "unit": "nM"}, {"measurement": "IC50", "setting": "[8]", "result": "500 to 1000", "unit": "nM"}, {"measurement": "IC50", "setting": "[9]", "result": "500 to 1000", "unit": "nM"}, {"measurement": "IC50", "setting": "[10]", "result": "500 to 1000", "unit": "nM"}, {"measurement": "IC50", "setting": "[11]", "result": "500 to 1000", "unit": "nM"}, {"measurement": "IC50", "setting": "[12]", "result": "500 to 1000", "unit": "nM"}, {"measurement": "IC50", "setting": "[13]", "result": "500 to 1000", "unit": "nM"}, {"measurement": "IC50", "setting": "[14]", "result": "500 to 1000", "unit": "nM"}, {"measurement": "IC50", "setting": "[15]", "result": "< 500", "unit": "nM"}, {"measurement": "IC50", "setting": "[16]", "result": "< 500", "unit": "nM"}, {"measurement": "IC50", "setting": "[17]", "result": "< 500", "unit": "nM"}, {"measurement": "infection and infectious spread of live VSV", "setting": "[18]", "result": "inhibit infection and infectious spread"}, {"measurement": "IC50", "setting": "[18]; Vesicular stomatitis virus, read-out: Activity", "result": "500 to 1000", "unit": "nM"}, {"measurement": "IC50", "setting": "[19]", "result": "1000 to 5000", "unit": "nM"}, {"measurement": "IC50", "setting": "[20]", "result": "500 to 1000", "unit": "nM"}, {"measurement": "IC50", "setting": "[21]", "result": "> 10000", "unit": "nM"}, {"measurement": "IC50", "setting": "[22]", "result": "> 10000", "unit": "nM"}, {"measurement": "IC50", "setting": "[23]", "result": "> 10000", "unit": "nM"}, {"measurement": "effect of pre-treatment temperature and duration on antiviral activity", "setting": "[24]", "result": "no significant effect"}, {"measurement": "reporter virus entry via Nipah virus envelope (NiV-F/G)", "setting": "[24]", "result": "inhibited reporter virus entry"}, {"measurement": "IC50", "setting": "[24]; Vesicular stomatitis virus, Vero, read-out: in vitro IC50 concentrations", "result": "~1000", "unit": "nM"}, {"measurement": "reporter virus entry via Vesicular Stomatitis virus envelope proteins (VSV-G)", "setting": "[25]", "result": "inhibited reporter virus entry"}, {"measurement": "viral transcription, mRNA production, and mRNA capping of VSV", "setting": "[26]", "result": "unaffected"}, {"measurement": "infectivity of treated virus after 4 h PBS wash and secondary repurification", "setting": "[27]", "result": "remained non-infectious"}, {"measurement": "infectivity of treated virus after washing and repurification", "setting": "[27]", "result": "non-infectious"}, {"measurement": "inhibitory effect after washing pre-treated target cells", "setting": "[28]", "result": "Washing the cells reversed the inhibitory effect"}, {"measurement": "inhibitory effect versus time of addition", "setting": "[29]", "result": "apparent only when the compound was added before or during, but not after, the viral infection period"}, {"measurement": "intercalation into cellular membranes", "setting": "[30]", "result": "dose-dependent increase in fluorescence"}, {"measurement": "effect of compound pre-incubated with saturating liposomes on viral infection", "setting": "[31]", "result": "no effect on viral infection"}, {"measurement": "effect of excess liposomes, virus pre-exposed to compound", "setting": "[31]", "result": "no longer able to rescue viral infection"}, {"measurement": "effect of liposome size on binding or reversal of inhibition", "setting": "[31]", "result": "no effect"}, {"measurement": "effect of liposomes, virus and liposomes simultaneously subjected to compound", "setting": "[31]", "result": "competed off virus infection"}, {"measurement": "virion membrane morphology by EM", "setting": "[32]", "result": "significant distortion of the viral membrane"}, {"measurement": "infectivity of gradient fractions", "setting": "[33]", "result": "completely non-infectious"}, {"measurement": "reduction in infectivity", "setting": "[33]", "result": "≥ 5", "unit": "log"}, {"measurement": "virus-cell binding", "setting": "[34]", "result": "still bound cognate cell surface receptors"}, {"measurement": "cytoplasmic delivery of beta-lactamase matrix fusion protein", "setting": "[35]", "result": "inhibited cytoplasmic delivery"}, {"measurement": "NiV envelope mediated cell-cell fusion", "setting": "[36]", "result": "did not inhibit"}, {"measurement": "sensitivity of passaged virus to compound", "setting": "[37]", "result": "no evidence of decreased sensitivity"}, {"measurement": "toxic effects in AK and LD enzyme release assays", "setting": "[38]", "result": "little to no toxic effects"}, {"measurement": "active cell metabolism (Alamar Blue uptake)", "setting": "[39]", "result": "no effect on active cell metabolism"}, {"measurement": "complete blood counts with differential", "setting": "[40]", "result": "no difference relative to the vehicle control group"}, {"measurement": "hematocrit and hemoglobin levels", "setting": "[40]", "result": "normal"}, {"measurement": "liver function tests, kidney function tests, serum electrolytes", "setting": "[40]", "result": "all normal and equivalent to the vehicle control mice"}, {"measurement": "serum cholesterol levels", "setting": "[40]", "result": "statistically significant elevation"}, {"measurement": "serum metabolites (glucose, phosphate, triglycerides)", "setting": "[40]", "result": "normal"}, {"measurement": "weight loss", "setting": "[40]", "result": "< 10", "unit": "%"}, {"measurement": "peak serum concentration, 20 mg/kg group versus 50 mg/kg group", "setting": "[41]", "result": "higher peak serum concentration than the 50 mg/kg group"}, {"measurement": "time until serum levels approach in vitro IC50 concentrations", "setting": "[41]; ip", "result": "about 2 hours"}, {"measurement": "half-life", "setting": "[42]", "result": "~4", "unit": "h"}]}
